What was measured:
Assay type in all cases: in vivo
barnyard grass [1] = assay: Test Example 2: weedkilling efficacy, growth period weed treatment in the submerged state; A: barnyard grass; settings: treatment dosage 252 g/ha
Summary of the method: (§1)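 First, alluvial soil in pots is flooded to 4 cm and mixed seed is sown. Next, plants grow in a greenhouse at 25 to 30° C until the 1-2 leaf stage. Then diluted emulsion is applied onto the water surface at the given g/ha rate, and injury is assessed after 3 weeks.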

fig-leafed goosefoot [2] = assay: Test Example 4: weedkilling efficacy by foliar treatment; M: fig-leafed goosefoot; settings: treatment dosage 315 g/ha
Summary of the method: (§2)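 Seeds are spot-sown into sterilized diluvial soil and covered with about 1.5 cm of soil. After 14 days' greenhouse growth at 25 to 30° C, plants are sprayed on stems and leaves with diluted emulsion at the stated g/ha rate, then scored at 3 weeks.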

black-grass [3] = assay: Test Example 4: weedkilling efficacy by foliar treatment; H: black-grass; settings: treatment dosage 315 g/ha
Summary of the method: as §2

corn [4] = assay: Test Example 4: foliar treatment, effect on crop; c: corn; settings: treatment dosage 315 g/ha
Summary of the method: as §2

chickweed [5] = assay: Test Example 4: weedkilling efficacy by foliar treatment; N: chickweed; settings: treatment dosage 315 g/ha
Summary of the method: as §2

green foxtail [6] = assay: Test Example 3: weedkilling efficacy through soil treatment; E: green foxtail; settings: treatment dosage 315 g/ha
Summary of the method: (§3)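 Crop and weed responses were judged three weeks after a uniform surface spray of the water-diluted emulsion at the given g/ha rate. Seeds sat beneath about 1.5 cm of sterilized diluvial soil, and boxes stood in a greenhouse at 25 to 30° C.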

redroot pigweed [7] = assay: Test Example 3: weedkilling efficacy through soil treatment; L: redroot pigweed; settings: treatment dosage 315 g/ha
Summary of the method: as §3

oval-leafed pondweed [8] = assay: Test Example 2: weedkilling efficacy, growth period weed treatment in the submerged state; C: oval-leafed pondweed; settings: treatment dosage 252 g/ha
Summary of the method: as §1

redroot pigweed [9] = assay: Test Example 4: weedkilling efficacy by foliar treatment; L: redroot pigweed; settings: treatment dosage 315 g/ha
Summary of the method: as §2

fig-leafed goosefoot [10] = assay: Test Example 3: weedkilling efficacy through soil treatment; M: fig-leafed goosefoot; settings: treatment dosage 315 g/ha
Summary of the method: as §3

wild oat [11] = assay: Test Example 4: weedkilling efficacy by foliar treatment; G: wild oat; settings: treatment dosage 315 g/ha
Protocol: Testing of Weedkilling Efficacy by Foliar Treatment
Sterilized diluvial soil was introduced into 21 cm long, 13 cm wide, 7 cm deep plastic boxes, and seeds of crabgrass, green foxtail, barnyard grass, wild oat, black-grass, Italian ryegrass, common wind-grass, Indian mallow, redroot pigweed, fig-leafed goosefoot, chickweed, catchweed, birds-eye speedwell, corn, soybean, rice, wheat, beet and rapeseed were each spot-sown, and covered with about 1.5 cm of soil, then the plants were grown in a greenhouse at 25 to 30° C.
After they had grown for 14 days, emulsions of compounds of the present invention prepared according to compounding example 2 were diluted with water to give the specified dosages, and applied uniformly onto the stem and leaf parts with a small sprayer. 3 weeks after the pesticide treatment the effect on each type of plant was investigated on the basis of the assessment criteria of test example 1.
A: barnyard grass, B: bulrush, C: oval-leafed pondweed, D: crabgrass, E: green foxtail, F: barnyard grass, G: wild oat, H: black-grass, I: Italian ryegrass, J: common wind-grass, K: Indian mallow, L: redroot pigweed, M: fig-leafed goosefoot, N: chickweed, O: catchweed, p: birds-eye speedwell, a: transplanted rice, b: directly sown rice, c: corn, d: soybean, e: wheat, f: beet, g: rapeseed
Further, pesticide dosage (g/ha) indicates the concentration regulated such that treatment was with only the stated number of grams (g), when calculated per hectare (ha).

bulrush [12] = assay: Test Example 2: weedkilling efficacy, growth period weed treatment in the submerged state; B: bulrush; settings: treatment dosage 252 g/ha
Summary of the method: as §1

oval-leafed pondweed [13] = assay: Test Example 1: weedkilling efficacy, preemergent weed treatment in the submerged state; C: oval-leafed pondweed; settings: treatment dosage 252 g/ha
Summary of the method: (§4)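 Emulsion diluted with water to the specified per-hectare dosage is applied onto flood water (4 cm) over alluvial soil on the sowing day, with barnyard grass, bulrush and pondweed seeded and rice (2.5-leaf) transplanted; plants grow at 25–30 °C and are rated at 3 weeks.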

birds-eye speedwell = assay: Test Example 3: weedkilling efficacy through soil treatment; p: birds-eye speedwell; settings: treatment dosage 315 g/ha
Summary of the method: as §3

soybean [14] = assay: Test Example 4: foliar treatment, effect on crop; d: soybean; settings: treatment dosage 315 g/ha
Summary of the method: as §2

directly sown rice [15] = assay: Test Example 3: soil treatment, effect on crop; b: directly sown rice; settings: treatment dosage 315 g/ha
Summary of the method: as §3

green foxtail [16] = assay: Test Example 4: weedkilling efficacy by foliar treatment; E: green foxtail; settings: treatment dosage 315 g/ha
Summary of the method: as §2

bulrush [17] = assay: Test Example 1: weedkilling efficacy, preemergent weed treatment in the submerged state; B: bulrush; settings: treatment dosage 252 g/ha
Summary of the method: as §4

Indian mallow [18] = assay: Test Example 3: weedkilling efficacy through soil treatment; K: Indian mallow; settings: treatment dosage 315 g/ha
Summary of the method: as §3

barnyard grass [19] = assay: Test Example 1: weedkilling efficacy, preemergent weed treatment in the submerged state; A: barnyard grass; settings: treatment dosage 252 g/ha
Summary of the method: as §4

directly sown rice [20] = assay: Test Example 4: foliar treatment, effect on crop; b: directly sown rice; settings: treatment dosage 315 g/ha
Summary of the method: as §2

Italian ryegrass [21] = assay: Test Example 4: weedkilling efficacy by foliar treatment; I: Italian ryegrass; settings: treatment dosage 315 g/ha
Summary of the method: as §2

Italian ryegrass [22] = assay: Test Example 3: weedkilling efficacy through soil treatment; I: Italian ryegrass; settings: treatment dosage 315 g/ha
Summary of the method: as §3

transplanted rice = assay: Test Example 1: preemergent weed treatment in the submerged state, effect on crop; a: transplanted rice; settings: treatment dosage 252 g/ha
Summary of the method: as §4

black-grass [23] = assay: Test Example 3: weedkilling efficacy through soil treatment; H: black-grass; settings: treatment dosage 315 g/ha
Summary of the method: as §3

wheat [24] = assay: Test Example 4: foliar treatment, effect on crop; e: wheat; settings: treatment dosage 315 g/ha
Summary of the method: as §2

crabgrass [25] = assay: Test Example 3: weedkilling efficacy through soil treatment; D: crabgrass; settings: treatment dosage 315 g/ha
Summary of the method: as §3

Indian mallow [26] = assay: Test Example 4: weedkilling efficacy by foliar treatment; K: Indian mallow; settings: treatment dosage 315 g/ha
Summary of the method: as §2

wild oat [27] = assay: Test Example 3: weedkilling efficacy through soil treatment; G: wild oat; settings: treatment dosage 315 g/ha
Summary of the method: as §3

catchweed [28] = assay: Test Example 4: weedkilling efficacy by foliar treatment; O: catchweed; settings: treatment dosage 315 g/ha
Summary of the method: as §2

wheat [29] = assay: Test Example 3: soil treatment, effect on crop; e: wheat; settings: treatment dosage 315 g/ha
Summary of the method: as §3

corn [30] = assay: Test Example 3: soil treatment, effect on crop; c: corn; settings: treatment dosage 315 g/ha
Summary of the method: as §3

soybean [31] = assay: Test Example 3: soil treatment, effect on crop; d: soybean; settings: treatment dosage 315 g/ha
Summary of the method: as §3

crabgrass [32] = assay: Test Example 4: weedkilling efficacy by foliar treatment; D: crabgrass; settings: treatment dosage 315 g/ha
Summary of the method: as §2

catchweed [33] = assay: Test Example 3: weedkilling efficacy through soil treatment; O: catchweed; settings: treatment dosage 315 g/ha
Summary of the method: as §3

beet = assay: Test Example 4: foliar treatment, effect on crop; f: beet; settings: treatment dosage 315 g/ha
Summary of the method: as §2

chickweed [34] = assay: Test Example 3: weedkilling efficacy through soil treatment; N: chickweed; settings: treatment dosage 315 g/ha
Summary of the method: as §3

In the case of CC1=C(c2ccccc2)C(=O)N(C(C)(C)C(=O)Nc2cccc(C(F)(F)F)n2)CO1 [B-2-58], the “A (barnyard grass) weedkilling efficacy grade” value (barnyard grass [1]) is reported as 3 (weed kill ratio 40% or more, less than 70%), the “M (fig-leafed goosefoot) weedkilling efficacy grade” value (fig-leafed goosefoot [2]) is reported as 3 (weed kill ratio 40% or more, less than 70%) and the “H (black-grass) weedkilling efficacy grade” value (black-grass [3]) is reported as 5 (weed kill ratio 90% or more, (practically complete withering)). The “c (corn) effect on crop grade” value (corn [4]) was 3 (weed kill ratio 40% or more, less than 70%), the “N (chickweed) weedkilling efficacy grade” value (chickweed [5]) was 3 (weed kill ratio 40% or more, less than 70%) and the “E (green foxtail) weedkilling efficacy grade” value (green foxtail [6]) was 5 (weed kill ratio 90% or more, (practically complete withering)). For the same compound, the “L (redroot pigweed) weedkilling efficacy grade” value (redroot pigweed [7]) was 3 (weed kill ratio 40% or more, less than 70%), the “C (oval-leafed pondweed) weedkilling efficacy grade” value (oval-leafed pondweed [8]) was 4 (weed kill ratio 70% or more, less than 90%) and the “L (redroot pigweed) weedkilling efficacy grade” value (redroot pigweed [9]) was 3 (weed kill ratio 40% or more, less than 70%). The “M (fig-leafed goosefoot) weedkilling efficacy grade” value (fig-leafed goosefoot [10]) was 4 (weed kill ratio 70% or more, less than 90%), the “G (wild oat) weedkilling efficacy grade” value (wild oat [11]) was 3 (weed kill ratio 40% or more, less than 70%) and the “B (bulrush) weedkilling efficacy grade” value (bulrush [12]) was 5 (weed kill ratio 90% or more, (practically complete withering)). The “C (oval-leafed pondweed) weedkilling efficacy grade” value (oval-leafed pondweed [13]) was 5 (weed kill ratio 90% or more, (practically complete withering)), the “P (birds-eye speedwell) weedkilling efficacy grade” value (birds-eye speedwell) was 5 (weed kill ratio 90% or more, (practically complete withering)) and the “d (soybean) effect on crop grade” value (soybean [14]) was 3 (weed kill ratio 40% or more, less than 70%). The “b (directly sown rice) effect on crop grade” value (directly sown rice [15]) was 3 (weed kill ratio 40% or more, less than 70%), the “E (green foxtail) weedkilling efficacy grade” value (green foxtail [16]) was 5 (weed kill ratio 90% or more, (practically complete withering)) and the “B (bulrush) weedkilling efficacy grade” value (bulrush [17]) was 5 (weed kill ratio 90% or more, (practically complete withering)). For the same compound, the “K (Indian mallow) weedkilling efficacy grade” value (Indian mallow [18]) was 1 (weed kill ratio 5% or more, less than 20%), the “A (barnyard grass) weedkilling efficacy grade” value (barnyard grass [19]) was 5 (weed kill ratio 90% or more, (practically complete withering)) and the “b (directly sown rice) effect on crop grade” value (directly sown rice [20]) was 4 (weed kill ratio 70% or more, less than 90%). For the same compound, the “I (Italian ryegrass) weedkilling efficacy grade” value (Italian ryegrass [21]) was 5 (weed kill ratio 90% or more, (practically complete withering)), the “I (Italian ryegrass) weedkilling efficacy grade” value (Italian ryegrass [22]) was 5 (weed kill ratio 90% or more, (practically complete withering)) and the “a (transplanted rice) effect on crop grade” value (transplanted rice) was 0 (weed kill ratio 5% or less (practically no effect)). The “H (black-grass) weedkilling efficacy grade” value (black-grass [23]) was 4 (weed kill ratio 70% or more, less than 90%), the “e (wheat) effect on crop grade” value (wheat [24]) was 1 (weed kill ratio 5% or more, less than 20%) and the “D (crabgrass) weedkilling efficacy grade” value (crabgrass [25]) was 5 (weed kill ratio 90% or more, (practically complete withering)). For the same compound, the “K (Indian mallow) weedkilling efficacy grade” value (Indian mallow [26]) was 3 (weed kill ratio 40% or more, less than 70%), the “G (wild oat) weedkilling efficacy grade” value (wild oat [27]) was 3 (weed kill ratio 40% or more, less than 70%) and the “O (catchweed) weedkilling efficacy grade” value (catchweed [28]) was 1 (weed kill ratio 5% or more, less than 20%). The “e (wheat) effect on crop grade” value (wheat [29]) was 0 (weed kill ratio 5% or less (practically no effect)), the “c (corn) effect on crop grade” value (corn [30]) was 1 (weed kill ratio 5% or more, less than 20%) and the “d (soybean) effect on crop grade” value (soybean [31]) was 0 (weed kill ratio 5% or less (practically no effect)). The “D (crabgrass) weedkilling efficacy grade” value (crabgrass [32]) was 5 (weed kill ratio 90% or more, (practically complete withering)), the “O (catchweed) weedkilling efficacy grade” value (catchweed [33]) was 0 (weed kill ratio 5% or less (practically no effect)) and the “f (beet) effect on crop grade” value (beet) was 4 (weed kill ratio 70% or more, less than 90%). For the same compound, the “N (chickweed) weedkilling efficacy grade” value (chickweed [34]) was 4 (weed kill ratio 70% or more, less than 90%).

Source: patent US9738634B2, “Heterocyclic amide compound and herbicide” (SYNGENTA PARTICIPATIONS AG, priority 2013, dated 2017)
